SMILES strings stand for the structures. pKi: −log10 of the molar value. Bounds are passed on as bounds.

The values that follow come from patent publication US6509328B1, “Glutamate receptor antagonists” (Hoffmann-La Roche Inc., priority 1999, dated 2003).

One data set deals with T1, rat mGlu2 receptor (Rattus norvegicus, UniProt P31421).
T1 construct: expressed in transfected cells; vector pcDNA I-amp (pcD1mGR2)
The data set is described as follows: [3H]-LY354740 binding on mGlu2 transfected CHO cell membranes. The text has this:
[^3H]-LY354740 Binding on mGlu2 Transfected CHO Cell Membranes
Transfection and Cell Culture
cDNA encoding the rat mGlu2 receptor protein in pBluescript II was obtained from Prof. S. Nakanishi (Kyoto, Japan), and subcloned into the eukaryotic expression vector pcDNA I-amp from Invitrogen (N V Leek, The Netherlands). This vector construct (pcD1mGR2) was co-transfected with a psvNeo plasmid encoding the gene for neomycin resistance, into CHO cells by a modified calcium phosphate method described by Chen & Okayama (1988). The cells were maintained in Dulbecco's Modified Eagle medium with reduced L-glutamine (2 mM final concentration) and 10% dialysed foetal calf serum from Gibco BRL (Basel, Switzerland). Selection was made in the presence of […] (1000 ug/ml final). Clones were identified by reverse transcription of 5 μg total RNA, followed by PCR using mGlu2 receptor specific primers 5′-[…]-3′ and 5′-[…]-3′ in 60 mM Tris HCl (pH 10), 15 mM (NH4)2SO4, 2 mM MgCl2, 25 units/ml Taq Polymerase with 30 cycles annealing at 60° C. for 1 min., extension at 72° C. for 30s, and 1 min. 95° C. denaturation.
Cells, cultured as above, were harvested and washed three times with cold PBS and frozen at −80° C. The pellet was resuspended in cold 20 mM HEPES-NaOH buffer containing 10 mM EDTA (pH 7.4), and homogenised with a polytron (Kinematica, AG, Littau, Switzerland) for 10s at 10,000 rpm. After centrifugation for 30 min. at 4° C., the pellet was washed once with the same buffer, and once with cold 20 mM HEPES-NaOH buffer containing 0.1 mM EDTA, (pH 7.4). Protein content was measured using the Pierce method (Socochim, Lausanne, Switzerland) using bovine serum albumin as standard.
After thawing, the membranes were resuspended in cold 50 mM Tris-HCl buffer containing 2 mM MgCl2 and 2 mM CaCl2, (pH 7) (binding buffer). The final concentration of the membranes in the assays was 25 μg protein/ml. Inhibition experiments were performed with membranes incubated with 10 nM [^3H]-LY354740 at room temperature, for 1 hour, in presence of various concentrations of the compound to be tested. Following the incubations, membranes were filtered onto Whatmann GF/C glass fiber filters and washed 5 times with cold binding buffer. Non specific binding was measured in the presence of 10 μM DCG IV (TOCRIS No. 0975). After transfer of the filters into plastic vials containing 10 ml of Ultima-gold scintillation fluid (Packard, Zürich, Switzerland), the radioactivity was measured by liquid scintillation in a Tri-Carb 2500 TR counter (Packard, Zürich, Switzerland).
The inhibition curves were fitted with a four parameter logistic equation giving IC50 values, and Hill coefficients.

T1 sequence (P31421 19-872): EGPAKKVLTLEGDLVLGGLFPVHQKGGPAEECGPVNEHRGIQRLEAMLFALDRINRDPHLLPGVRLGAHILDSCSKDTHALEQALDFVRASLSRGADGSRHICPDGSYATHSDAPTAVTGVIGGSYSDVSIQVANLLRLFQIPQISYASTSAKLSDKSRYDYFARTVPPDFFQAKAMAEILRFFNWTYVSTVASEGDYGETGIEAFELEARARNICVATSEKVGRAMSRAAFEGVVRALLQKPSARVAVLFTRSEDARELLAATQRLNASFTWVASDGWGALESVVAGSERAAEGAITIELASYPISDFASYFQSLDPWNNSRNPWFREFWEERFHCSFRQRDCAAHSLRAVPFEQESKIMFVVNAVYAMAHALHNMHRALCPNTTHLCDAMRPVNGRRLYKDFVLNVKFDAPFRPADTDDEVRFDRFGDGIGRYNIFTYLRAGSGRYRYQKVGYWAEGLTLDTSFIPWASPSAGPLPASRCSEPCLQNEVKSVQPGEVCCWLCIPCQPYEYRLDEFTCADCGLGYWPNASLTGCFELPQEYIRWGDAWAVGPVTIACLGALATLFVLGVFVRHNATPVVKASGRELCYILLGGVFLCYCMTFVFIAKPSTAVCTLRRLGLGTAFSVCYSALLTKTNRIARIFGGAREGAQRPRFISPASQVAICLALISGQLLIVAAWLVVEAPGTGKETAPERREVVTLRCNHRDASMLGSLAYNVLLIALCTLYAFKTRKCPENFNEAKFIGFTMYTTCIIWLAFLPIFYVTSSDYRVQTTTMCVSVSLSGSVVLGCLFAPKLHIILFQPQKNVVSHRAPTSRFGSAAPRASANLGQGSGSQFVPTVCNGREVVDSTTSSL

`N#Cc1cccc(C2=Nc3ccc(I)cc3NC(=O)C2)c1` [Example 1, 3-(7-Iodo-4-oxo-4,5-dihydro-3H-benzo[b][1,4]diazepin-2-yl)-benzonitrile]: the melting point (as a rule, the temperature of the solid-liquid transition) is 198 to 200 °C (dec.). Besides, the pKi (as a rule, −log10 of the Ki, conventionally taken in molar units) on rat mGlu2 receptor was 7.77. In turn, `O=C1CC(c2cccc(-n3ccnc3)c2)=Nc2ccc(C#Cc3ccccc3)cc2N1` [Example 52] gave a melting point of 193 to 196 °C. Also, the pKi at rat mGlu2 receptor is 8.22. The matching figures for `O=C1CC(c2cccc(-n3ccnc3)c2)=Nc2ccc(C#Cc3ccc(F)cc3)cc2N1` [Example 58, 8-(4-Fluoro-phenylethynyl)-4-(3-imidazol-1-yl-phenyl)-1,3-dihydro-benzo [b][1,4]diazepin-2-one]: 216 to 218 °C and 8.40. `O=C1CC(c2cccc(-n3cncn3)c2)=Nc2ccc(C#Cc3ccc(F)cc3)cc2N1` [Example 62, 8-(4-Fluoro-phenylethynyl)-4-(3-[1,2,4]triazol-1-yl-phenyl)-1,3-dihydro-benzo[b][1,4]diazepin-2-one] gave a melting point of 217 to 218 °C. This molecule gave a pKi at rat mGlu2 receptor of 7.31. `O=C1CC(c2ccnc(-n3ccnc3)c2)=Nc2ccc(C#Cc3ccc(F)cc3)cc2N1` [Example 68, 8-(4-Fluoro-phenylethynyl)-4-(2-imidazol-1-yl-pyridin-4-yl)-1,3-dihydro-benzo[b][1,4]diazepin-2-one]: the melting point was 206 °C (dec.). For the same molecule, the pKi on rat mGlu2 receptor was 8.40. As to `Cc1cn(-c2cccc(C3=Nc4ccc(-c5ccc(F)cc5)cc4NC(=O)C3)c2)cn1` [Example 76, 8-(4-Fluoro-phenyl)-4-[3-(4-methyl-imidazol-1-yl)-phenyl]-1,3-dihydro-benzo [b][1,4]diazepin-2-one], the melting point is 215 °C. For the same molecule, the pKi at rat mGlu2 receptor is 7.80. As for `Cc1cc(F)ccc1-c1ccc2c(c1)NC(=O)CC(c1cccc(-n3ccnc3)c1)=N2` [Example 79, 8-(4-Fluoro-2-methyl-phenyl)-4-(3-imidazol-1-yl-phenyl)-1,3-dihydro-benzo[b][1,4]diazepin-2-one], the melting point lay within 170 to 172 °C. On rat mGlu2 receptor, the pKi is 7.30. The molecule `O=C1CC(c2cccc(-n3ccnc3)c2)=Nc2ccc(-c3ccc(F)cc3O)cc2N1` [Example 80, 8-(4-Fluoro-2-hydroxy-phenyl)-4-(3-imidazol-1-yl-phenyl)-1,3-dihydro-benzo[b][1,4]diazepin-2-one] came in with a melting point of 220 °C. At rat mGlu2 receptor, this molecule showed a pKi of 6.77. Molecule `N#Cc1ccsc1C1=CC(=O)Nc2cc(-c3ccc(F)cc3)ccc2N1` [Example 83, 2-[7-(4-Fluoro-phenyl)-4-oxo-4,5-dihydro-1H-benzo [b][1,4]diazepin-2-yl]-thiophene-3-carbonitrile] came in with a melting point of 239 to 240 °C. For the same molecule, the negative-log Ki (pKi) on rat mGlu2 receptor was 6.60. Molecule `N#Cc1cc(C2=Nc3ccc(-c4ccc(F)cc4F)cc3NC(=O)C2)ccn1` [Example 104, 4-[7-(2,4-Difluoro-phenyl)-4-oxo-4,5-dihydro-3H-benzo [b][1,4]diazepin-2-yl]-pyridine-2-carbonitrile] yielded a melting point of 250 to 253 °C. The molecule also gave a negative logarithm of the Ki (pKi) on rat mGlu2 receptor of 7.59. For the molecule `Cc1cc(-c2cccc(C3=Nc4ccc(-c5ccc(F)cc5)cc4NC(=O)C3)c2)on1` [Example 117, 8-(4-Fluoro-phenyl)-4-[3-(3-methyl-isoxazol-5-yl)-phenyl]-1,3-dihydro-benzo[b][1,4]diazepin-2-one], the melting point was > 250 °C. On rat mGlu2 receptor, this molecule showed a pKi of 6.54. Take `O=C1CC(c2csc(-n3ccnc3)n2)=Nc2ccc(-c3ccccc3F)cc2N1` [Example 124, 8-(2-Fluoro-phenyl)-4-(2-imidazol-1-yl-thiazol-4-yl)-1,3-dihydro-benzo [b][1,4]diazepin-2-one]: the melting point lay within 194 to 197 °C. Moreover, the pKi on rat mGlu2 receptor is 6.53. With `O=C1CC(c2cccc(-c3nc(C(=O)O)cs3)c2)=Nc2ccc(-c3ccccc3F)cc2N1` [Example 160, 2-{3-[7-(2-Fluoro-phenyl)-4-oxo-4,5-dihydro-3H-benzo [b][1,4]diazepin-2-yl]-phenyl}-thiazole-4-carboxylic Acid], the pKi at rat mGlu2 receptor is 7.80. Consider `Cc1nnc(-c2cccc(C3=Nc4ccc(-c5ccc(F)cc5)cc4NC(=O)C3)c2)n1C` [Example 166, 4-[3-(4,5-Dimethyl-4H-[1,2,4]triazol-3-yl)-phenyl]-8-(4-fluoro-phenyl)-1,3-dihydro-benzo[b][1,4]diazepin-2-one], for which the melting point is 238 to 240 °C (dec.). For the same molecule, the negative-log Ki (pKi) at rat mGlu2 receptor is 6.97.
